# Assay: pH of 2.5 wt % aqueous solutions of the salts in purified water
# Assay type: physicochemical
# Settings: 2.5 wt % aqueous solution in purified water
row,Molecule,pH of 2.5% salt solution
1,"Cl.N [NH4Cl, ammonium chloride]",4.97
2,"O=C([O-])O.[Na+] [NaHCO3(anhydrous), anhydrous sodium bicarbonate]",8.09
3,"[Ca+2].[Cl-].[Cl-] [CaCl2(anhydrous), anhydrous calcium chloride]",8.40
4,"[Cl-].[K+] [KCl, potassium chloride]",6.05
5,"[Cl-].[Na+] [NaCl, sodium chloride]",5.69
6,"O=P([O-])([O-])O.[Na+].[Na+] [Na2HPO4(anhydrous), anhydrous disodium hydrogen phosphate]",8.90

# The next lines start with the values.
row,pH of 2.5% salt solution,Molecule
1,6.12,"NCC(=O)O [Glycine, glycine]"
2,8.25,anhydrous sodium acetate [CH3CO2Na(anhydrous)]
3,11.31,"O=C([O-])[O-].[Na+].[Na+] [Na2CO3(anhydrous), anhydrous sodium carbonate]"

# Reference: patent US20080214557A1, “METHOD FOR PREPARATION OF PHARMACEUTICAL COMPOSITION HAVING IMPROVED DISINTEGRATABILITY AND PHARMACEUTICAL COMPOSITION MANUFACTURED BY SAME METHOD” (Eisai R&D Management Co., Ltd., priority 2005, published 2008)
